# Source: patent publication US10206902B2, “Mono- or di-substituted indoles as dengue viral replication inhibitors” (priority 2014, dated 2019)
# Tests used:
# Assay type in all cases: cell-based
# Vero cells = assay: in vitro; details: African green monkey
# Description: (§1) In parallel, the toxicity of the compounds was assessed on the same plates. Once the read-out for the eGFP signal was done, 10 μL of resazurin, a cell viability stain, was added to all wells of the 384-well plates. The resazurin assay is based on the reduction of the blue resazurin by NADH, produced by the cells, into the highly fluorescent product, resorufin. The formation of pink fluorescent resorufin is directly related to the number of viable cells in the well. The plates were incubated for an additional 5 hours in a fully humidified incubator (37° C., 5% CO2). Next, the plates were measured on an Infinite reader (Tecan) using an excitation wavelength of 530 nm. The half maximal cytotoxic concentration (CO50) was also determined, defined as the concentration required to reduce the resazurin conversion by 50% compared to that of the cell control wells (Table 1). Finally, the selectivity index (SI) was determined for the compounds, which was calculated as followed: SI=CC50/EC50.
# in vitro [1] = details: African green monkey, CC50
# Description: (§2) Potential cytotoxic effects of the compounds were evaluated in uninfected Vero cells. Cells were seeded at 4×10^4 cells/well in a 96-well plate in the presence of two-, three- or five-fold serial dilutions (ranging from 50 μg/mL-0.0038 μg/mL, 50 μg/mL-0.0076 μg/mL, and 50 μg/mL-0.00013 μg/mL, respectively) of compound and incubated for 4 to 7 days. Culture medium was discarded and 100 μL 3-(4,5-dimethylthiazol-2-yl)-5-(3-carboxymethoxyphenyl)-2-(4-sulfophenyl)-2H-tetrazolium/phenazinemethosulfate (MTS/PMS; Promega, Leiden, The Netherlands) in PBS was added to each well. Following a 2-hour incubation period at 37° C., the optical density was determined at 498 nm. Cytotoxic activity was calculated using the following formula: % cell viability=100×(ODCompound/ODCC), where ODcompound and ODCC correspond to the optical density at 498 nm of the uninfected cell cultures treated with compound and that of uninfected, untreated cell cultures, respectively. The 50% cytotoxic concentration (i.e., the concentration that reduces the total cell number with 50%; CC50) was calculated using linear interpolation (Tables 7 and 8).
# DENV-4 strain EDEN = assay: Tetravalent RT-qPCR assay Protocol A, serotype 4 EDEN; details: Dengue virus, DENV4, 72 h, RT-qPCR serotype 4 EDEN, Vero cells, day 3
# Description: (§3) The antiviral activity of the compounds of the invention was tested against DENV-1 strain TC974#666 (NCPV), DENV-2 strain 16681, DENV-3 strain H87 (NCPV) and DENV-4 strains H241 (NCPV) and EDEN (SG/06K2270DK1/2005; GenBank accession number QG398256) in a RT-qPCR assay. Therefore, Vero cells were infected with either DENV-1, or -2, or -3, or -4 in the presence or absence of test compounds. At day 3 post-infection, the cells were lysed and cell lysates were used to prepare cDNA of both a viral target (the 3′UTR of DENV; table 2) and a cellular reference gene (β-actin, table 2). Subsequently, a duplex real time PCR was performed on a Lightcycler480 instrument. The generated Cp value is inversely proportional to the amount of RNA expression of these targets. Inhibition of DENV replication by a test compound result in a shift of Cp's for the 3′UTR gene. On the other hand, if a test compound is toxic to the cells, a similar effect on β-actin expression will be observed. The comparative ΔΔCp method is used to calculate EC50, which is based on the relative gene expression of the target gene (3′UTR) normalized with the cellular housekeeping gene (β-actin). In addition, CC50 values were determined based on the Cp values acquired for the housekeeping gene β-actin.
# (§4) The culture medium consisted of minimal essential medium supplemented with 2% of heat-inactivated fetal calf serum, 0.04% gentamycin (50 mg/mL) and 2 mM of L-glutamine. Vero cells, obtained from ECACC, were suspended in culture medium and 75 μL/well was added in 96-well plates (10000 cells/well), which already contain the antiviral compounds. Typically, these plates contain a 4-fold serial dilution of 9 dilution steps of the test compound at 200 times the final concentration in 100% DMSO (500 nL; final concentration range: 25 μM-0.00038 μM). In addition, each plate contains wells which are assigned as virus controls (containing cells and virus in the absence of compound) and cell controls (containing cells in the absence of virus and compound). Once the cells were added in the plates, the plates were incubated in a fully humidified incubator (37° C., 5% CO2) until the next day. Then, DENV-1 strain TC974#666, DENV-2 strain 16681, DENV-3 strain H87 or DENV-4 strains H241 or EDEN were added. […] In parallel, 25 μL of culture medium was added to the cell controls. Next, the plates were incubated for 3 days in a fully humidified incubator (37° C., 5% CO2). After 3 days, the supernatant was removed from the wells and the cells were washed twice with ice-cold PBS (˜100 μL). The cell pellets within the 96-well plates were stored at −80° C. for at least 1 day. Next, RNA was extracted using the Cells-to-CT™ lysis kit, according to the manufacture's guideline (Applied Biosystems). The cell lysates can be stored at −80° C. or immediately used in the reverse transcription step. In preparation of the reverse transcription step, mix A (table 3A) was prepared and 7.57 μL/well was dispensed in a 96-well plate. After addition of 5 μL of the cell lysates, a five minute denaturation step at 75° C. was performed (table 3B). Afterwards, 7.43 μL of mix B was added (table 3C) and the reverse transcription step was initiated (table 3D) to generate cDNA.
# (§5) Finally, a RT-qPCR mix was prepared, mix C (table 4A), dispensed in 96-well LightCycler qPCR plates to which 3 μL of cDNA was added and the qPCR was performed according to the conditions in table 4B on a LightCycler 480. Using the LightCycler software and an in-house LIMS system, dose response curves for each compound were calculated and the half maximal effective concentration (EC50) and the half maximal cytotoxic concentration (CO50) were determined (Tables 6-9).
# uninfected Vero cells = assay: in vitro; details: African green monkey
# Description: as §2
# in vitro [2] = details: African green monkey
# Description: as §3, §4, §5
# in vitro [3] = details: African green monkey, CC50; remark: listed apart in the source
# Description: as §1
Compound,CC50 (Vero cells) [µM],CC50 (in vitro [1]) [µM],EC50 (DENV-4 strain EDEN) [µM],CC50 (uninfected Vero cells) [µM],CC50 at 3 days (in vitro [2]) [µM],CC50 (in vitro [3]) [µM]
"COc1cc(NC(C(=O)c2c[nH]c3cc(F)ccc23)c2ccc(F)cc2OC)cc(OCCO)c1 (single isomer, unassigned) [Compound 1A, 1-(6-fluoro-1H-indol-3-yl)-2-(4-fluoro-2-methoxyphenyl)-2-((3-(2-hydroxyethoxy)-5-methoxyphenyl)amino)ethanone]",8.4,13,0.012,,,
"COc1cc(NC(C(=O)c2c[nH]c3c(C)c(F)ccc23)c2ccc(F)cc2OC)cc(OCCO)c1 (single isomer, unassigned) [Compound 2B, 2-(4-fluoro-2-methoxyphenyl)-1-(6-fluoro-7-methyl-1H-indol-3-yl)-2-((3-(2-hydroxyethoxy)-5-methoxyphenyl)amino)ethanone]",5.3,9.2,0.011,15,3.6,
"COc1cc(NC(C(=O)c2c[nH]c3c(C)c(Cl)ccc23)c2ccc(F)cc2OC)cc(OCCO)c1 (single isomer, unassigned) [Compound 3A, 1-(6-chloro-7-methyl-1H-indol-3-yl)-2-(4-fluoro-2-methoxyphenyl)-2-((3-(2-hydroxyethoxy)-5-methoxyphenyl)amino)ethanone]",,7.6,0.016,13,4.1,
"COc1cc(NC(C(=O)c2c[nH]c3cc(Cl)ccc23)c2ccc(F)cc2OC)cc(OCCO)c1 (single isomer, unassigned) [Compound 4A, 1-(6-chloro-1H-indol-3-yl)-2-(4-fluoro-2-methoxyphenyl)-2-((3-(2-hydroxyethoxy)-5-methoxyphenyl)amino)ethanone]",5.9,9.7,0.016,18,,
"COc1cc(NC(C(=O)c2c[nH]c3c(F)c(F)ccc23)c2ccc(F)cc2OC)cc(OCCO)c1 (single isomer, unassigned) [Compound 5B, 1-(6,7-difluoro-1H-indol-3-yl)-2-(4-fluoro-2-methoxyphenyl)-2-((3-(2-hydroxyethoxy)-5-methoxyphenyl)amino)ethanone]",6.5,12,0.024,11,,
"COc1cc(NC(C(=O)c2c[nH]c3cc(OC)c(C)cc23)c2ccc(F)cc2OC)cc(OCCO)c1 (single isomer, unassigned) [Compound 6A, 2-(4-fluoro-2-methoxyphenyl)-2-((3-(2-hydroxyethoxy)-5-methoxyphenyl)amino)-1-(6-methoxy-5-methyl-1H-indol-3-yl)ethanone]",,9.7,0.013,17,,7.5
"COc1cc(NC(C(=O)c2c[nH]c3cc(OC)c(F)cc23)c2ccc(F)cc2OC)cc(OCCO)c1 (single isomer, unassigned) [Compound 7A, 2-(4-fluoro-2-methoxyphenyl)-1-(5-fluoro-6-methoxy-1H-indol-3-yl)-2-((3-(2-hydroxyethoxy)-5-methoxyphenyl)amino)ethanone]",,16,0.023,18,3.8,> 8.6
"COc1cc(NC(C(=O)c2c[nH]c3c(Cl)c(OC)ccc23)c2ccc(F)cc2OC)cc(OCCO)c1 (single isomer, unassigned) [Compound 8A, 1-(7-chloro-6-methoxy-1H-indol-3-yl)-2-(4-fluoro-2-methoxyphenyl)-2-((3-(2-hydroxyethoxy)-5-methoxyphenyl)amino)ethanone]",8.6,9.6,0.021,,10,
"COc1cc(NC(C(=O)c2c[nH]c3c(C)cc(F)cc23)c2ccc(F)cc2OC)cc(OCCO)c1 (single isomer, unassigned) [Compound 9B, 2-(4-fluoro-2-methoxyphenyl)-1-(5-fluoro-7-methyl-1H-indol-3-yl)-2-((3-(2-hydroxyethoxy)-5-methoxyphenyl)amino)ethanone]",5.5,8.8,0.02,14,3.8,
"COc1cc(NC(C(=O)c2c[nH]c3cc(F)c(F)cc23)c2ccc(F)cc2OC)cc(OCCO)c1 (single isomer, unassigned) [Compound 10B, 1-(5,6-difluoro-1H-indol-3-yl)-2-(4-fluoro-2-methoxy-phenyl)-2-((3-(2-hydroxyethoxy)-5-methoxyphenyl)amino)ethanone]",6.9,7.3,0.02,11,,
"COc1cc(NC(C(=O)c2c[nH]c3c(C)c(OC)ccc23)c2ccc(F)cc2OC)cc(OCCO)c1 (single isomer, unassigned) [Compound 11A, 2-(4-fluoro-2-methoxyphenyl)-2-((3-(2-hydroxyethoxy)-5-methoxyphenyl)amino)-1-(6-methoxy-7-methyl-1H-indol-3-yl)ethanone]",8.9,11,0.015,12,6.3,
"COc1cc(NC(C(=O)c2c[nH]c3c(F)cc(C)cc23)c2ccc(F)cc2OC)cc(OCCO)c1 (single isomer, unassigned) [Compound 12B, 2-(4-fluoro-2-methoxyphenyl)-1-(7-fluoro-5-methyl-1H-indol-3-yl)-2-((3-(2-hydroxyethoxy)-5-methoxyphenyl)amino)ethanone]",5.5,9.4,0.017,14,5,
